The results in this text go back to patent US8512940B2, “Method for preserving liver in a solution comprising dibutyryl cAMP” (Otsuka Pharmaceutical Factory, Inc., priority 2005, dated 2013).

The subject of the series is liver grafts. The series is classed as in vivo. The conditions noted are these: content in ET-K+db-cAMP (2 mM) preservation solution, liver transplanted without final rinsing. The procedure: Eight-week-old inbred male Lewis rat (SLC) was housed in a chip-bedded cage at room temperature under a 12 hr light/dark cycle and given free access to a standard chow diet and water before operation.
Group I: UW solution group (n=8), Group II: New ET-K solution group (n=6), Group III: modified New ET-K solution group (n=8). The liver was preserved under cooling in each preservation solution for 24 hr, and then syngeneic liver transplantation was performed. Rats were randomly assigned to each group.
In the UW group, the blood in the donor liver portal vein blood vessel was first replaced with 10 ml of Ringer's solution, and then the blood vessel was perfused with 10 ml of UW solution. In the New ET-K group and the modified New ET-K group, the blood in the donor liver portal vein blood vessel was directly replaced with 20 ml of each preservation solution. In all groups, the perfusion with the preservation solution was performed at a pressure of 15 cmH2O. Then, liver grafts were preserved in respective preservation solutions at 4° C. for 24 hr. […]
In the same manner as in Example 1, syngenic liver transplantation was performed on 8-week-old inbred male Lewis rats (SLC), and the survival rate after transplantation of the liver preserved in preservation solutions containing various concentrations of nitroglycerin (NTG) was evaluated. […]

As for `O=[N+]([O-])OCC(CO[N+](=O)[O-])O[N+](=O)[O-]` [nitroglycerin], the “nitroglycerin content at which toxicity due to nitroglycerin is hardly expressed” value is “not more than 0.0044 mM”.
